Experiment in all cases: KinomeScan kinase panel, single concentration 10 µM
Common to all, as to type: binding

Experiment [1] has as its target T1, KinomeScan kinase panel (Homo sapiens, UniProt P78362).
T1 construct: purchased DiscoveRx (KinomeScan)
Conditions: read-out: score (%).

The target of experiment [2] is T2, KinomeScan kinase panel (Homo sapiens, UniProt P45985).
T2 construct: purchased DiscoveRx (KinomeScan)
T2 sequence (P45985 1-399): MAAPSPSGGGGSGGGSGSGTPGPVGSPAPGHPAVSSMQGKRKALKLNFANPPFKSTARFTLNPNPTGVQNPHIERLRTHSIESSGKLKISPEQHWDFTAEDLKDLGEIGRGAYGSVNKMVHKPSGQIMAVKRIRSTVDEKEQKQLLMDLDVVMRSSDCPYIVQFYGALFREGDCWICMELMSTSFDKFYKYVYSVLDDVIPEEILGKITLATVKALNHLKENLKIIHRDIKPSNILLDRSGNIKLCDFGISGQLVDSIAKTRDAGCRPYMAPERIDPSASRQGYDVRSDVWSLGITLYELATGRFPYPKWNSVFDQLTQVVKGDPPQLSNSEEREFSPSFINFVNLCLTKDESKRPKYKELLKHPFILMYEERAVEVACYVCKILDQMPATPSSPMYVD
Conditions: MEK4, 10 µM; read-out: score (%).

Experiment [3] concerns the target T3, KinomeScan kinase panel (Homo sapiens, UniProt P42336, E545K).
T3 construct: purchased DiscoveRx (KinomeScan)
Conditions: PIK3CA(E545K), 10 µM; read-out: score (%).

In experiment [4] the target is T4, KinomeScan kinase panel (Homo sapiens, UniProt Q96L34).
T4 construct: purchased DiscoveRx (KinomeScan)
T4 sequence (Q96L34 1-752): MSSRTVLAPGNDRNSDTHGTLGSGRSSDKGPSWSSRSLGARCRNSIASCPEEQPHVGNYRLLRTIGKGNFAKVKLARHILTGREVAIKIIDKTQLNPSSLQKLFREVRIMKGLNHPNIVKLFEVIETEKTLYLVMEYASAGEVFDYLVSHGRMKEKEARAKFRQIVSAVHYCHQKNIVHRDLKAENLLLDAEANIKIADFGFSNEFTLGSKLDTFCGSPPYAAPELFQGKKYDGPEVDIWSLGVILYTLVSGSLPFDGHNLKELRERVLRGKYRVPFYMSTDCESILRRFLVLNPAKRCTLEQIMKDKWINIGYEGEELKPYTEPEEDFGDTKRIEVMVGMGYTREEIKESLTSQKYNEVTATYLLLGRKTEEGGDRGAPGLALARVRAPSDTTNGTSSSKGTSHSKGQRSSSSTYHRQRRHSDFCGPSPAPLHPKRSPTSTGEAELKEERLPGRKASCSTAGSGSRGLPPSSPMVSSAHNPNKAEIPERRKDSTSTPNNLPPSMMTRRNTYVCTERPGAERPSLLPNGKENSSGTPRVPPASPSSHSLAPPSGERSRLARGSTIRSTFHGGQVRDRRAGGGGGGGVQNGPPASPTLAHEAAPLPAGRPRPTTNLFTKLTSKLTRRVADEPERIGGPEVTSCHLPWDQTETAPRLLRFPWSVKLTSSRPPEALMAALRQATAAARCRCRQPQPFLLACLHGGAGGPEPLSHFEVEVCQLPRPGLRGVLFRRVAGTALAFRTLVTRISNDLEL
The following applies: MARK4, 10 µM.

For experiment [5], the target named is T5, KinomeScan kinase panel (Homo sapiens, UniProt P00519, Y253F).
T5 construct: purchased DiscoveRx (KinomeScan)
Conditions: 10 µM, read-out: score (%).

Experiment [6] has as its target T6, KinomeScan kinase panel (Homo sapiens, UniProt O15264).
T6 construct: purchased DiscoveRx (KinomeScan)
T6 sequence (O15264 1-365): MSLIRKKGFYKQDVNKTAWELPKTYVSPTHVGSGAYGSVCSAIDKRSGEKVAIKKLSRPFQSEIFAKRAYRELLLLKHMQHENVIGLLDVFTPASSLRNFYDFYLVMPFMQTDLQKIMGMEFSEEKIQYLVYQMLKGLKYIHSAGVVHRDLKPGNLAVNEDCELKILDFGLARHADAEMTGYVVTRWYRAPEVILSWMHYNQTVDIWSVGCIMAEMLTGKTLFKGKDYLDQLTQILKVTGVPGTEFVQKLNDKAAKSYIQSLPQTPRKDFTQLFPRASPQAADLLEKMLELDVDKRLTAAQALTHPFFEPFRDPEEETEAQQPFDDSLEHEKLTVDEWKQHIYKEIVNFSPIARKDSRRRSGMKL
The following applies: p38-delta, 10 µM; read-out: score (%).

Experiment [7] concerns the target T7, KinomeScan kinase panel (Homo sapiens, UniProt Q9BWU1).
T7 construct: purchased DiscoveRx (KinomeScan)
The following applies: CDK11, 10 µM.

Experiment [8] has as its target T8, KinomeScan kinase panel (Homo sapiens, UniProt Q8IU85).
T8 construct: purchased DiscoveRx (KinomeScan)
The following applies: CAMK1D, 10 µM; read-out: score (%).

The target of experiment [9] is T9, KinomeScan kinase panel (Homo sapiens, UniProt Q99755).
T9 construct: purchased DiscoveRx (KinomeScan)
T9 sequence (Q99755 whole entry): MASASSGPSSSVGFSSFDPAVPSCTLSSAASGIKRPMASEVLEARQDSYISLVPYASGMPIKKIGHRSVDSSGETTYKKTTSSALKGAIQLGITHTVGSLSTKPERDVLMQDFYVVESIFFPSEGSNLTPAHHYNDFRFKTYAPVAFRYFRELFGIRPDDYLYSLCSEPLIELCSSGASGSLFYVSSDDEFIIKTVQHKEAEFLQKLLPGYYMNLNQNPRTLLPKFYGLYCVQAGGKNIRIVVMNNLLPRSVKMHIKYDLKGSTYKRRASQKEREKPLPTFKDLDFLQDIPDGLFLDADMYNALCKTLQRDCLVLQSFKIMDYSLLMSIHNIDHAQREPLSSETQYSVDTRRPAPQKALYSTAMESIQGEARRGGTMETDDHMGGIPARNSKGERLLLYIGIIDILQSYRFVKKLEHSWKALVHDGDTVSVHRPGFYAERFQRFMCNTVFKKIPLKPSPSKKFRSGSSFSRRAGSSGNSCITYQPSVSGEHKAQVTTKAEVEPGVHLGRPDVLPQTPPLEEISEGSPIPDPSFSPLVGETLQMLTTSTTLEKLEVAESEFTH
Conditions: PIP5K1A, 10 µM; read-out: score (%).

Experiment [10] deals with T10, KinomeScan kinase panel (Homo sapiens, UniProt Q9P0L2).
T10 construct: purchased DiscoveRx (KinomeScan)
T10 sequence (Q9P0L2 whole entry): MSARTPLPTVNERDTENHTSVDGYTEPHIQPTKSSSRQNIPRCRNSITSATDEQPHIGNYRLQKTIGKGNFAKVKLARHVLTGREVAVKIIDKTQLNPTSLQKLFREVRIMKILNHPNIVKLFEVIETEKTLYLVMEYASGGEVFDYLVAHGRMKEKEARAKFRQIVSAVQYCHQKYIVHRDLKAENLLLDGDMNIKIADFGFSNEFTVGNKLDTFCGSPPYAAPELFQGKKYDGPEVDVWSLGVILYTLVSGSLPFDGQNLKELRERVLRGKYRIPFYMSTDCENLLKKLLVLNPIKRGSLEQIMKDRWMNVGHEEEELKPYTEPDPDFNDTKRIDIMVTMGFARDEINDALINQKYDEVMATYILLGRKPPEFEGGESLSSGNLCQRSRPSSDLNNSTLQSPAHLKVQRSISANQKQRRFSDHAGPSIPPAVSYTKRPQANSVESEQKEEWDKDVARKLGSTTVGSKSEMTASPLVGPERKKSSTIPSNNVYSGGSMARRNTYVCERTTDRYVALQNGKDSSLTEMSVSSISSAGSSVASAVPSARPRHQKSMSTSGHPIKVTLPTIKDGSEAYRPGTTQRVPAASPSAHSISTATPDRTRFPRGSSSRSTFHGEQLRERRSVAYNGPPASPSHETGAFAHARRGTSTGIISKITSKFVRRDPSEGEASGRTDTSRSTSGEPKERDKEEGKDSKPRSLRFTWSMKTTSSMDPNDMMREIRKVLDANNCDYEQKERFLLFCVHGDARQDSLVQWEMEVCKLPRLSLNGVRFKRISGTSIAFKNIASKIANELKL
The following applies: MARK1, 10 µM; read-out: score (%).

Data on three compounds can be found in paper PMC4457528, “Identification of Novel Small Molecule Inhibitors of Oncogenic RET Kinase” (PLoS ONE, 2015).

Where two headings read alike, the source gives them in different places.

T1 sequence (P78362 whole entry): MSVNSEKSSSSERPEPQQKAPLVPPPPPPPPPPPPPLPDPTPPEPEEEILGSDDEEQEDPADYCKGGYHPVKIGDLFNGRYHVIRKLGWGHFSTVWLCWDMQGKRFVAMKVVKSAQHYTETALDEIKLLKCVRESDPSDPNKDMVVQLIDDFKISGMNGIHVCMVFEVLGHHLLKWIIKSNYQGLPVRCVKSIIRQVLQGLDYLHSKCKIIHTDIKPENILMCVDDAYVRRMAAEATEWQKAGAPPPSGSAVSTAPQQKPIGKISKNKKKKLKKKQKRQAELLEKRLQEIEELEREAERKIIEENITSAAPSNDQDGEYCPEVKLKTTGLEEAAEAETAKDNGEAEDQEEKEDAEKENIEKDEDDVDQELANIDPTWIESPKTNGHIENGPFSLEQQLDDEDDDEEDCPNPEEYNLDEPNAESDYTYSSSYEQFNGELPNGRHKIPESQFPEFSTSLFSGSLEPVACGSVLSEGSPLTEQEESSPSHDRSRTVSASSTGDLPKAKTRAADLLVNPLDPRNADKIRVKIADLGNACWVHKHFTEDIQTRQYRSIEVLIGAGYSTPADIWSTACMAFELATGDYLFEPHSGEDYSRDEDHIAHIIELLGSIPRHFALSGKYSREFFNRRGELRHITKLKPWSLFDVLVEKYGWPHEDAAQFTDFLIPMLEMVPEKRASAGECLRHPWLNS
T7 sequence (Q9BWU1 whole entry): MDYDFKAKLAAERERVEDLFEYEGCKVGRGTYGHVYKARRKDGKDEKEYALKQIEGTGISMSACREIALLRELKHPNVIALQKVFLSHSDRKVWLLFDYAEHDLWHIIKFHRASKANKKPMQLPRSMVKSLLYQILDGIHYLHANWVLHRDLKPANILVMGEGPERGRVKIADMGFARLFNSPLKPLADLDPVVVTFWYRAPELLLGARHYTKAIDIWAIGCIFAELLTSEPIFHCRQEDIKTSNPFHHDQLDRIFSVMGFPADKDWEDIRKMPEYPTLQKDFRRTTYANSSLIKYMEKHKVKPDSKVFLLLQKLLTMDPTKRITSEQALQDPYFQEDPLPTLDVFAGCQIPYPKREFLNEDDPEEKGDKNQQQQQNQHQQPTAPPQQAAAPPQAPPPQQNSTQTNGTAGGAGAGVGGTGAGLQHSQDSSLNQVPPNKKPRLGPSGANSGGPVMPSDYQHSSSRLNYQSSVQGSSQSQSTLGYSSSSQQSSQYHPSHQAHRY
T3 sequence (P42336 whole entry E545K): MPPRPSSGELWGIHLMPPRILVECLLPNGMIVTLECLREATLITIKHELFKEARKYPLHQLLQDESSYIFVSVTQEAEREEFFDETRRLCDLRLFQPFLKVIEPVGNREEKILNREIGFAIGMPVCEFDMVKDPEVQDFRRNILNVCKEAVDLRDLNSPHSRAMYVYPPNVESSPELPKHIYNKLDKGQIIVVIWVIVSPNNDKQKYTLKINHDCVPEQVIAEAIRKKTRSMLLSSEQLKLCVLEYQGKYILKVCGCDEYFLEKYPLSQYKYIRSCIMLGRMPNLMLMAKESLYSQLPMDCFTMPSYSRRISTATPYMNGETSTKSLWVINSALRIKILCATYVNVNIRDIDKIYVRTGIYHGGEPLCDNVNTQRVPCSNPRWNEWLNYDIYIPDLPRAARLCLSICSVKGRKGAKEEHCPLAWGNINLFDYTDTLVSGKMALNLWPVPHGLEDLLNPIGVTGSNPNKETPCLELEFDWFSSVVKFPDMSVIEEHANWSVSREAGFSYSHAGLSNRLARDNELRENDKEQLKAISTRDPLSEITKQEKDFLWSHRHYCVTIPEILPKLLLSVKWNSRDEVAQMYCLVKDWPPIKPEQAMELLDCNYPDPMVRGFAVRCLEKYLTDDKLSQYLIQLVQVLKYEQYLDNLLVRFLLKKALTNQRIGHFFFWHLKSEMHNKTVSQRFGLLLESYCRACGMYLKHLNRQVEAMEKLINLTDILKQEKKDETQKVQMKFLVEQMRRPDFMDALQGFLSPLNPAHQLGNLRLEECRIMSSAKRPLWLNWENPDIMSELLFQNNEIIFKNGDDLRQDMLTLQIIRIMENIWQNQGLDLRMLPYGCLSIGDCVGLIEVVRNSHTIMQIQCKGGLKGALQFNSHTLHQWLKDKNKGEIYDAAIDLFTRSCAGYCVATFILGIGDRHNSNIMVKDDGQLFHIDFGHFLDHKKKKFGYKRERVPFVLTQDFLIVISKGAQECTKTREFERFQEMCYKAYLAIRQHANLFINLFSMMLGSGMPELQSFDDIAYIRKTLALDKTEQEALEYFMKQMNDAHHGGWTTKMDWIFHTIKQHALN
T8 sequence (Q8IU85 whole entry): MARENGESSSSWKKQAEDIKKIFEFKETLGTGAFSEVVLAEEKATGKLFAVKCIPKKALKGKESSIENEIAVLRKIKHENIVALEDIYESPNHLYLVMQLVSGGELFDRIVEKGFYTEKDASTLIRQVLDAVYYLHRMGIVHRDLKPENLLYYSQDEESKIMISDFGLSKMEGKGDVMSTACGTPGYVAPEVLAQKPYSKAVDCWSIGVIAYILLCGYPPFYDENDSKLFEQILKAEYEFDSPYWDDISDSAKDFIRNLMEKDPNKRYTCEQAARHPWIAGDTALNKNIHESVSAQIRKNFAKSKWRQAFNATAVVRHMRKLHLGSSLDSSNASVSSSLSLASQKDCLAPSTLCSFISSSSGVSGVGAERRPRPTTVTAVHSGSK

Regarding `CCN1CCN(Cc2ccc(NC(=O)c3ccc(C)c(NC(=O)c4cncc(-c5cccs5)c4)c3)cc2C(F)(F)F)CC1` [ALW-II-41-27], the remaining binding at 10 µM is greater than 30% at KinomeScan kinase panel [1] (kinase SRPK2, 10 µM); greater than 30% at KinomeScan kinase panel [2]; greater than 30% on KinomeScan kinase panel [3]; 0.2% at KinomeScan kinase panel [5] (ABL1(Y253F)); 29% on KinomeScan kinase panel [6]; greater than 30% at KinomeScan kinase panel [8]. The remaining binding at 10 µM at KinomeScan kinase panel [9] and at KinomeScan kinase panel [10] was greater than 30% each time. In addition, the “score (%)” value on KinomeScan kinase panel [4] was “nb (Hits values higher than 30% were considered negative (no binding: nb))”; on KinomeScan kinase panel [7], 3.8%.

As to `CCN1CCN(Cc2ccc(NC(=O)c3ccc(C)c(/C=C/c4cnc5[nH]ccc5c4Cl)c3)cc2C(F)(F)F)CC1` [HG-6-63-01, (E)-3-(2-(4-chloro-1H-pyrrolo[2,3-b]pyridin-5-yl)vinyl)-N-(4-((4-ethylpiperazin-1-yl)methyl)-3-(trifluoromethyl)phenyl)-4-methylbenzamide], the remaining binding at 10 µM at KinomeScan kinase panel [1] (SRPK2, 10 µM) was 28%; on KinomeScan kinase panel [2], greater than 30%; at KinomeScan kinase panel [3], greater than 30%; at KinomeScan kinase panel [5] (ABL1(Y253F)) it was 0.1%; on KinomeScan kinase panel [6], greater than 30%; on KinomeScan kinase panel [8], greater than 30%. The results for the remaining binding at 10 µM on KinomeScan kinase panel [9] and on KinomeScan kinase panel [10] were 15% and greater than 30%, respectively. Also, the “score (%)” value at KinomeScan kinase panel [4] amounted to 25%; on KinomeScan kinase panel [7], 3%.

Turning to `CCN1CCN(Cc2ccc(NC(=O)c3ccc(C)c(C#Cc4cccnc4)c3)cc2C(F)(F)F)CC1` [XMD15-44], the remaining binding at 10 µM on KinomeScan kinase panel [1] (kinase SRPK2, 10 µM) was 81%; on KinomeScan kinase panel [2], greater than 30%; at KinomeScan kinase panel [3], 85%; at KinomeScan kinase panel [5] (ABL1(Y253F)-phosphorylated), 0.15%; on KinomeScan kinase panel [6] it was 2.5%; on KinomeScan kinase panel [8], greater than 30%. Moreover, the remaining binding at 10 µM was 79% on KinomeScan kinase panel [9] and greater than 30% on KinomeScan kinase panel [10]. Moreover, the “score (%)” value on KinomeScan kinase panel [4] is “nb (Hits values higher than 30% were considered negative (no binding: nb))”; on KinomeScan kinase panel [7], 5%.
